Patent US20220030866A1, “CONJUGATES OF AUXIN ANALOGS” (The State of Israel, Ministry of Agriculture & Rural …, priority 2019, published 2022)
Marks after values point to notes of the source that are not given here.

What was measured:
Assay type in all cases: in vivo
[1] = test system: cuttings from mature Eucalyptus grandis trees; assay: rooting of cuttings from mature Eucalyptus grandis trees; conditions: 100 μM compound by submerging or spraying, with 6000 ppm IBA
[2] = test system: Arabidopsis seedlings; assay: split petri dish assay, separate shoot or root application in etiolated Arabidopsis seedlings; conditions: 10 μM; for adventitious root formation, exposure of shoots compared to exposure of roots / lateral root formation, shoot application compared with root application: split dish
Text: The observation that AR enhancement in Eucalyptus cuttings was higher when 4-CPA conjugates were applied also to the leaves (as described in Example 3) prompted further investigation into the functions of shoot-derived 4-CPA. To this end, 4-CPA or Compounds 1p and it were applied specifically to roots or shoots of five-day old etiolated Arabidopsis seedlings using a split petri dish (as depicted in FIG. 26) and the effect on root elongation, lateral root (LR) formation and adventitious root (AR) formation was evaluated.
Arabidopsis plants were germinated and grown in the dark for 5 days, then then transferred to petri dishes with a partition in the middle. Each half of these plates contained either medium alone or with 10 μM of 4-CPA or Compound 1p or 1tl. The etiolated seedlings were put on the plates with their collet region on the partition such that either the hypocotyl and cotyledons, or the root or both were in touch with the medium containing the tested compound. Adventitious roots and lateral roots were counted and the length of the primary root was measured after a week.

[3] = test system: Pinus halepensis cuttings; assay: rooting and root development in pine cuttings; conditions: 400 ppm IBA potassium salt + 5 ppm conjugate, 4 hours dip; 12 weeks
Procedure: The effects of exemplary D-amino acid conjugates of 4-CPA (Compounds to and Is) on rooting in Pinus halepensis cuttings were compared with those of 2-DP-glycine methyl ester conjugate (2-DP-Gly). Rooting mature pine cuttings (i.e., cuttings that are taken from trees more than 4 years old) is very difficult.
Apical cuttings were taken from 7-year-old trees, stored for 4 weeks at 4° C., and treated by dipping the cutting bases for 4 hours in the following solution: 400 ppm IBA potassium salt+5 ppm tested conjugate+0.1% Amistar™ fungicide (250 grams/liter azoxystrobin). The cuttings were evaluated after 12 weeks.

[4] = test system: Eucalyptus brachyphylla cuttings; assay: rooting of Eucalyptus brachyphylla cuttings; conditions: for mean root number per cutting, E. brachyphylla: K-IBA alone or with 100 μM compound; for mean root length, E. brachyphylla, relative to IBA alone, in words: K-IBA with 100 μM compound
Procedure: (§1) In order to investigate cloning of productive eucalyptus trees from cuttings, branches were excised from mature Eucalyptus x trabutii and Eucalyptus brachyphylla trees the field (in Kfar Pines, Israel)—selected based on their exceptional nectar production and honeybee attraction—placed in a humidified cooler box and brought to a climate-controlled greenhouse within 2 hours. Each cutting, 7 cm long, included three nodes with only two leaves remaining at its apical end. Two-thirds of each blade was excised to minimize evapotranspiration. The cutting bases were submerged for 1 minute in 6 grams/liter indole-3-butyric acid potassium salt (K-IBA), optionally supplemented with Compound 1s or 1t at a concentration of 100 μM. In addition, the leaves were sprayed with 100 μM of each compound in the presence of 0.05% Triton X-100 surfactant. Stock solutions of Compounds 1s and 1t were at a concentration of 100 mM in DMSO. The cuttings were planted in rooting medium containing peat, vermiculite and polystyrene flakes at a ratio of 1:2:3 respectively, on a heated rooting table under 90% humidity. Fungicides were applied to the rooting media on a weekly basis. Rooting percentage, number of roots per cutting and root length were measured after 1 and 2 weeks and after 1 and 2 months.

[5] = test system: argan (Argania spinosa) cuttings; assay: rooting of argan cuttings; conditions: 100 μM conjugate with 6000 ppm IBA
How it was run: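 Cuttings in a commercial nursery were treated with 100 μM conjugate plus 6000 ppm IBA. Controls were talc with 8000 ppm IBA and fungicide (T-8), or 6000 ppm IBA alone.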

[6] = test system: Eucalyptus x trabutii cuttings; assay: rooting of Eucalyptus x trabutii cuttings; conditions: for mean root number per cutting, E. x trabutii: K-IBA alone or with 100 μM compound; for callus formation in E. x trabutii / mean root number and mean root length, E. x trabutii, relative to IBA alone, in words / rooting rate of E. x trabutii compared with IBA alone, in words: K-IBA with 100 μM compound
Procedure: as §1

`O=C(O)COc1ccc(Cl)cc1` [Compound 4-CPA, 4-chloro-phenoxyacetic acid, reference compound] was tested, and the “rooting in combination with IBA compared with IBA alone, in words” value [1] was “considerably less effective”, the “adventitious root formation, exposure of shoots compared to exposure of roots” value [2] was “significantly more adventitious root formation” and the “lateral root formation, shoot application compared with root application” value [2] was “inhibited lateral root formation more efficiently than application to roots”.
With `COC(=O)[C@@H](Cc1c[nH]c2ccccc12)NC(=O)COc1ccc(Cl)cc1` [Compound 1s, 4-CPA-D-Trp] the “Degree of root development Medium (%)” value [3] was 0%, the “Degree of root development Weak (%)” value [3] was 6.2% and the “Degree of root development Well-developed (%)” value [3] was 81.3* %. The “Rooting rate (%)” value [3] was 92.9%, the “mean root number per cutting, E. brachyphylla” value [4] was “about 2” and the “mean root length, E. brachyphylla, relative to IBA alone, in words” value [4] was “enhanced mean root length”. For the same compound, the “rooting percentage in argan compared with IBA alone, in words” value [5] was “considerably higher rooting percentages”, the “mean root number per cutting, E. x trabutii” value [6] was “about 5” and the “callus formation in E. x trabutii” value [6] was “no calluses were observed”. For the same compound, the “mean root number and mean root length, E. x trabutii, relative to IBA alone, in words” value [6] was “no apparent effect” and the “rooting rate of E. x trabutii compared with IBA alone, in words” value [6] was “considerably higher”.
In the case of `COC(=O)[C@H](Cc1c[nH]c2ccccc12)NC(=O)COc1ccc(Cl)cc1` [Compound 1t, 4-CPA-L-Trp], the “mean root number per cutting, E. brachyphylla” value [4] is reported as “about 2”, the “mean root length, E. brachyphylla, relative to IBA alone, in words” value [4] is reported as “enhanced mean root length” and the “rooting in combination with IBA compared with IBA alone, in words” value [1] is reported as “at least as potent as that of their corresponding D-amino acid conjugates”. The “effect on root growth of application to the shoot compared with application directly to the root” value ([2]; 24 hours on split dish) was “comparable”, the “adventitious root formation, exposure of shoots compared to exposure of roots” value [2] was “significantly more adventitious root formation” and the “lateral root formation, shoot application compared with root application” value [2] was “inhibited lateral root formation more efficiently than application to roots”. The “rooting percentage in argan compared with IBA alone, in words” value [5] was “considerably higher rooting percentages”, the “mean root number per cutting, E. x trabutii” value [6] was “about 5” and the “callus formation in E. x trabutii” value [6] was “no calluses were observed”. The “mean root number and mean root length, E. x trabutii, relative to IBA alone, in words” value [6] was “no apparent effect” and the “rooting rate of E. x trabutii compared with IBA alone, in words” value [6] was “considerably higher”.
